In patent publication US8338482B2, “Modulating notch1 signaling pathway for treating neuroendocrine tumors” (Wisconsin Alumni Research Foundation, priority 2007, dated 2012):

How the values were obtained:
[1] = test system: Notch1; assay: CBF1 binding site luciferase reporter assay; type: cell-based, human; conditions: DAPT 50 μM pretreatment 45 minutes, then 4 mM VPA
Description: Luciferase Reporter Assays GI carcinoid tumor cells were transiently transfected with luciferase constructs as previously described (Kunnimalaiyaan, M. et al., Conservation of the Notch1 signaling pathway in gastrointestinal carcinoid cells A J Physiol Gastrointest Liver Physiol 2005; 289:G636-642). Wild-type (4xwtCBF1Luc; 2 μg) or mutant (4xmutCBF1Luc; 2 μg) CBF1-luciferase reporter plasmids were co-transfected with CMV-β-gal (0.5 μg) (Hsieh J J et al., Truncated Mammalian Notch1 Activates CBF1/RBPJk-Repressed Genes by a Mechanism Resembling That of Epstein-Barr Virus EBNA2. Mol Cell Biol 1996; 16:952-959). In experiments with the γ-secretase inhibitor, N-[N-(3,5-difluorophenacetyl)-L-alanyl]-S-phenylglycine t-butyl ester (DAPT; EMD Biosciences, Darmstadt, Germany), to inhibit Notch1 cleavage and activation, cells were pretreated for 45 minutes with DAPT (50 μM) then treated with 4 mM VPA. […] Luciferase levels were measured using a Monolight 2010 Luminometer (Analytical Luminescence Laboratory, San Diego, Calif.). […]

[2] = test system: MEK; assay: MEK inhibitors and Notch1-mediated hormone suppression; type: cell-based, human; conditions: PD098059 25-50 uM or U0126 5-20 uM pre-treatment
Description: 1) MEK inhibitors. BON, BON-Notch1, H727, H727-Notch1, TT, and TT-Notch1 cells are pre-treated with either PD098059 (25-50 uM) or U0126 (5-20 uM) (both well-characterized MEK inhibitors) (Sippel R S, et al., Am J Physiol Gastrointest Liver Physiol 2003; 285:G245-G254; Sippel R S, et al., Surgery 2003; 134:866-871), alone or in combination, followed by addition of control or doxycycline (1 μg) for 24, 48, and 96 hours. Cells are then analyzed with the following methods.
2) Confirmation of MEK inhibition. To confirm MEK inhibition after treatment with PD098059 and U0126, cellular extracts are analyzed by Western blots utilizing antibodies against MEK, phospho-MEK, ERK1/2, and phospho-ERK1/2. MAPK in vitro kinase assay with a commercially available kit (Cell Signal Technology) is used to confirm blockade of MEK activity.
3) hASH1 and NE marker expression. To determine if MEK inhibition blocks Notch1-mediated NE marker suppression, cellular extracts are analyzed using western blots with hASH1, chromogranin A, synaptophysin, and neuron-specific enolase, and serotonin or calcionin secretion will be assessed using an ELISA assay, as described above.

[3] = test system: H727 human lung carcinoid cancer cells; assay: Western blot analysis of pulmonary carcinoid cells; type: cell-based
[4] = test system: BON human GI carcinoid cancer cells; assay: Western blot analysis of GI carcinoid cells; type: cell-based
Description: Cell Culture BON human GI carcinoid cancer cells, kindly provided by Drs. B. Mark Evers and Courtney M. Townsend, Jr.
Total protein concentrations were quantified with a bicinchoninic acid assay kit (Pierce Biotechnology, Rockford, Ill., USA). Denatured cellular extracts were resolved by SDS-PAGE, transferred to nitrocellulose membranes (Schleicher and Schuell, Keene, N.H., USA), blocked in milk, and incubated with appropriate antibodies. The antibody dilutions were: 1:1,000 for Notch1 (Santa Cruz Biotechnology, Santa Cruz, Calif., USA), mammalian achaete-scute homolog 1 (ASCL1; BD Biosciences, San Diego, Calif., USA), chromogranin A (Zymed Laboratories, San Francisco, Calif., USA), and cyclin D1 (Cell Signaling Technology, Danvers, Mass., USA), 1:2,000 for p21 (Cell Signaling Technology) and p27 (Santa Cruz Biotechnology), and 1:10,000 for glyceraldehyde-3-phosphate dehydrogenase (G3PDH; Trevigen, Gaithersburg, Md., USA). Horseradish peroxidase conjugated goat anti-rabbit or goat anti-mouse secondary antibodies (Pierce Biotechnology) were used depending on the source of the primary antibody. For visualization of the protein signal, Immunstar (Bio-Rad Laboratories, Hercules, Calif., USA) or SuperSignal West Femto (Pierce Biotechnology) kits were used per the manufacturer's instructions.
Cell Culture BON human gastrointestinal (GI) carcinoid tumor cells, kindly provided by Drs. B. Mark Evers and Courtney M. Townsend, Jr.
Total protein concentrations were quantified with a bicinchoninic acid assay kit (Pierce Biotechnology, Rockford, Ill.). Denatured cellular extracts were resolved by SDS-PAGE, transferred onto nitrocellulose membranes (Schleicher and Schuell, Keene, N H), blocked in milk, and incubated with appropriate antibodies. The antibody dilutions were: 1:1,000 for Notch1 (Santa Cruz Biotechnology, Santa Cruz, Calif.), mammalian achaete-scute homolog 1 (ASCL1; BD Biosciences, San Diego, Calif.), chromogranin A (Zymed Laboratories, San Francisco, Calif.), and cyclin D1 (Cell Signaling Technology, Danvers, Mass.), 1:2,000 for p21 (Cell Signaling Technology) and p27 (Santa Cruz Biotechnology), and 1:10,000 for glyceraldehyde-3-phosphate dehydrogenase (G3PDH; Trevigen, Gaithersburg, Md.). Horseradish peroxidase conjugated goat anti-rabbit or goat anti-mouse secondary antibodies (Pierce Biotechnology) were used depending on the source of the primary antibody. For visualization of the protein signal, Immunstar (Bio-Rad Laboratories, Hercules, Calif.) or SuperSignal West Femto (Pierce Biotechnology) kits were used per the manufacturer's instructions.

[5] = test system: BON human GI carcinoid cancer cells; assay: MTT cell proliferation assay, GI carcinoid cells; type: cell-based
Excerpt: (§1) Cell Culture BON human GI carcinoid cancer cells, kindly provided by Drs. B. Mark Evers and Courtney M. Townsend, Jr. (University of Texas Medical Branch, Galveston, Tex., USA), and H727 human lung carcinoid cancer cells (American Type Tissue Collection, Manassas, Va., USA) were maintained as previously described (Sippel, R S et al., Raf-1 Activation Suppresses neuroendocrine marker and hormone levels in human gastrointestinal carcinoid cells. Am J Physiol Gastrointest Liver Physiol. 2003 August; 285(2):G245-54, Van Gompel J J et al., ZM336372, A Raf-1 Activator, Suppresses Growth and Neuroendocrine Hormone Levels in Carcinoid Tumor Cells. Mol Cancer Ther. 2005 June; 4(6):910-7)
(§2) Cell Proliferation Assay Carcinoid cancer cell proliferation was measured by the MTT (thiazolyl blue tetrazolium bromide; Sigma-Aldrich, St. Louis, Mo., USA) rapid calorimetric assay as previously described (Van Gompel J J et al., ZM336372, A Raf-1 Activator, Suppresses Growth and Neuroendocrine Hormone Levels in Carcinoid Tumor Cells. Mol Cancer Ther. 2005 June; 4(6):910-7). Briefly, cells were seeded in quadruplicate on 24-well plates and incubated for 24 hours to allow cell attachment. The cells were then treated with SBHA (Sigma-Aldrich) in concentrations of 0 to 50 μM and incubated for up to 6 days. The MTT assay was performed by replacing the standard medium with 250 μL of serum-free medium containing MTT (0.5 mg/mL) and incubated at 37° C. for 3 hours. After incubation, 750 μL of dimethyl sulfoxide (Sigma-Aldrich) was added to each well and mixed thoroughly. The plates were then measured at 540 nm using a spectrophotometer (μQuant; Bio-Tek Instruments, Winooski, Vt., USA).
Cell Culture BON human gastrointestinal (GI) carcinoid tumor cells, kindly provided by Drs. B. Mark Evers and Courtney M. Townsend, Jr. […]
(§3) Cell Proliferation Assay Carcinoid tumor cell proliferation was measured by the MTT (methylthiazolyldiphenyl-tetrazolium bromide; Sigma-Aldrich, St. Louis, Mo.) rapid colorimetric assay as previously described (Van Gompel J J et al., ZM336372, A Raf-1 Activator, Suppresses Growth and Neuroendocrine Hormone Levels in Carcinoid Tumor Cells. Mol Cancer Ther 2005; 4:910-917). […] The plates were then measured at 540 nm using a spectrophotometer (μQuant; Bio-Tek Instruments, Winooski, Vt.).

[6] = test system: Human MTC TT cells; assay: Western blotting of medullary thyroid cancer cells; type: cell-based; conditions: concentrations up to 25 μM
Description: (§4) Human MTC TT cells were treated with SBHA in concentrations up to 25 μM and analyzed by Western blotting for evidence of Notch1 pathway activation and changes in neuroendocrine markers. MTT assay was used to measure cell viability. Finally mechanism of growth inhibition was analyzed by Western blotting.

[7] = test system: H727 human lung carcinoid cancer cells; assay: MTT cell proliferation assay, pulmonary carcinoid cells; type: cell-based; conditions: up to 6 days
Excerpt: as §1
as §2, with “After incubation, 750 μL of dimethyl sulfoxide (Sigma-Aldrich) was added to each well and mixed thoroughly.” left out, “USA). […]” for “USA).”
as §3

[8] = test system: Human MTC TT cells; assay: MTT cell viability assay, medullary thyroid cancer cells; type: cell-based; conditions: concentrations up to 25 μM
Description: as §4

[9] = test system: carcinoid tumor cells; conditions: cited from earlier work
[10] = test system: hASH1; conditions: small cell lung cancer cells; cited from earlier work

## C[C@H](NC(=O)Cc1cc(F)cc(F)c1)C(=O)N[C@H](C(=O)OC(C)(C)C)c1ccccc1 [DAPT, N-[N-(3,5-difluorophenacetyl)-L-alanyl]-S-phenylglycine t-butyl ester]
[1]
  effect of VPA on CBF1 binding: blocked the effect of VPA on CBF1 binding

## COc1cccc(-c2cc(=O)c3ccccc3o2)c1N [PD098059]
[2]
  Notch1-mediated hormone suppression: block

## O=C(CCCCCCC(=O)Nc1ccccc1)NO [SAHA, suberoylanilide hydroxamic acid]
[3]; 50 μM, 2 days
  chromogranin A level: complete suppression
[3]; 48 hours
  concentrations at which significant Notch1 induction was seen: 20 to 30 µM
[3]; SBHA/SAHA treatment, 48 hours
  ASCL1 protein: dose-dependent decrease
[4]; 30 μM, 2 days
  ASCL1 protein: undetectable level
[4]; SBHA/SAHA treatment, 48 hours
  ASCL1 protein: dose-dependent decrease
[4]; SBHA/SAHA, 2 days of treatment
  chromogranin A level: only modest inhibition

## O=C(CCCCCCC(=O)NO)NO [SBHA, suberic bishydroxamic acid]
[5]; SBHA 0 to 50 μM, up to 6 days
  cell proliferation: profound dose-dependent inhibition
[5]; after 4 days of exposure
  concentration giving significant growth inhibition: 5 µM
[6]
  ASCL1: concomitant decrease
  active form of Notch1: dose-dependent induction
  chromogranin A: decrease
  cleaved poly ADP-ribose polymerase (PARP) and caspase-3: increase in protein levels
[3]; SBHA, 48 hours
  levels of cyclin D1: decreased levels
  levels of cyclin-dependent kinase inhibitors p21 and p27: increased levels
[4]; 48 hours, concentrations as low as
  concentration resulting in induction of full-length Notch1 and Notch1 intracellular domain (NICD): 5 µM
[4]; SBHA, 48 hours
  levels of cyclin D1: decreased levels
  levels of cyclin-dependent kinase inhibitors p21 and p27: increased levels
[7]; SBHA 0 to 50 μM
  cell growth: dose-dependent growth suppression
[7]
  concentrations that produced growth inhibition: 20 to 50 µM
[8]
  cell viability: dose-dependant decrease

## N#CC(=C(/N)Sc1ccccc1N)/C(C#N)=C(\N)Sc1ccccc1N [U0126]
[2]
  Notch1-mediated hormone suppression: block

## CCCC(=O)[O-].[Na+] [sodium butyrate]
[9]
  cyclin D1: concomitant downregulation
  p21 and p27: increase

## CC(/C=C/C(=O)NO)=C\[C@@H](C)C(=O)c1ccc(N(C)C)cc1 [trichostatin A]
[9]
  cyclin D1: concomitant downregulation
  p21 and p27: increase

## c5p25: hASH1 anti-sense oligonucleotide 5′-UCCUACUAAGGCUGC-3′ (SEQ ID NO: 2) (listed as RNA, chemistry not given here)
[10]
  hASH1 expression: minimal hASH1 inhibitory activity

## c5p1476: hASH1 anti-sense oligonucleotide 5′-GGAGCCCACUGCUUU-3′ (SEQ ID NO: 1), directed at the hASH1 3′UTR (listed as RNA, chemistry not given here)
[10]
  hASH1 expression: very potent inhibitor

## c5pMiss1: missense oligonucleotide 5′-GCUACAUCUGGUCGC-3′ (SEQ ID NO: 3) (listed as RNA, chemistry not given here)
[10]
  hASH1 expression: no affect

## c5pMiss2: missense oligonucleotide 5′-CACUGAUGCACCUGU-3′ (SEQ ID NO: 4) (listed as RNA, chemistry not given here)
[10]
  hASH1 expression: no affect
